Data from patent publication US12065436B2, “Cardiac sarcomere inhibitors” (Cytokinetics, Inc., priority 2018, dated 2024).

Molecular target: bovine cardiac myofibrils (full-length cardiac myosin ATPase in the native sarcomere) (Bos taurus (Bovine), UniProt Q9BE39)
Test: Skinned bovine cardiac myofibril ATPase assay (PK/LDH-coupled)
Format: biochemical
Settings: Ca2+ activating to 75% of maximal rate; for CDMF75 IC15: concentration giving 15% inhibition; for IC50: read-out: CDMF75 IC50
Method in brief: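 Inhibition of steady-state ATPase read at 340 nm through a PK/LDH-coupled NADH system (0.5 mM NADH, 1.5 mM PEP). Detergent-skinned bovine cardiac myofibrils, 1 mg/mL, were tested at pH 6.8 in PIPES/MgCl2 with 50 μM ATP and calcium adjusted to give pCa50 or pCa75 activation.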

bovine cardiac myofibrils (full-length cardiac myosin ATPase in the native sarcomere), sequence (Q9BE39 whole entry): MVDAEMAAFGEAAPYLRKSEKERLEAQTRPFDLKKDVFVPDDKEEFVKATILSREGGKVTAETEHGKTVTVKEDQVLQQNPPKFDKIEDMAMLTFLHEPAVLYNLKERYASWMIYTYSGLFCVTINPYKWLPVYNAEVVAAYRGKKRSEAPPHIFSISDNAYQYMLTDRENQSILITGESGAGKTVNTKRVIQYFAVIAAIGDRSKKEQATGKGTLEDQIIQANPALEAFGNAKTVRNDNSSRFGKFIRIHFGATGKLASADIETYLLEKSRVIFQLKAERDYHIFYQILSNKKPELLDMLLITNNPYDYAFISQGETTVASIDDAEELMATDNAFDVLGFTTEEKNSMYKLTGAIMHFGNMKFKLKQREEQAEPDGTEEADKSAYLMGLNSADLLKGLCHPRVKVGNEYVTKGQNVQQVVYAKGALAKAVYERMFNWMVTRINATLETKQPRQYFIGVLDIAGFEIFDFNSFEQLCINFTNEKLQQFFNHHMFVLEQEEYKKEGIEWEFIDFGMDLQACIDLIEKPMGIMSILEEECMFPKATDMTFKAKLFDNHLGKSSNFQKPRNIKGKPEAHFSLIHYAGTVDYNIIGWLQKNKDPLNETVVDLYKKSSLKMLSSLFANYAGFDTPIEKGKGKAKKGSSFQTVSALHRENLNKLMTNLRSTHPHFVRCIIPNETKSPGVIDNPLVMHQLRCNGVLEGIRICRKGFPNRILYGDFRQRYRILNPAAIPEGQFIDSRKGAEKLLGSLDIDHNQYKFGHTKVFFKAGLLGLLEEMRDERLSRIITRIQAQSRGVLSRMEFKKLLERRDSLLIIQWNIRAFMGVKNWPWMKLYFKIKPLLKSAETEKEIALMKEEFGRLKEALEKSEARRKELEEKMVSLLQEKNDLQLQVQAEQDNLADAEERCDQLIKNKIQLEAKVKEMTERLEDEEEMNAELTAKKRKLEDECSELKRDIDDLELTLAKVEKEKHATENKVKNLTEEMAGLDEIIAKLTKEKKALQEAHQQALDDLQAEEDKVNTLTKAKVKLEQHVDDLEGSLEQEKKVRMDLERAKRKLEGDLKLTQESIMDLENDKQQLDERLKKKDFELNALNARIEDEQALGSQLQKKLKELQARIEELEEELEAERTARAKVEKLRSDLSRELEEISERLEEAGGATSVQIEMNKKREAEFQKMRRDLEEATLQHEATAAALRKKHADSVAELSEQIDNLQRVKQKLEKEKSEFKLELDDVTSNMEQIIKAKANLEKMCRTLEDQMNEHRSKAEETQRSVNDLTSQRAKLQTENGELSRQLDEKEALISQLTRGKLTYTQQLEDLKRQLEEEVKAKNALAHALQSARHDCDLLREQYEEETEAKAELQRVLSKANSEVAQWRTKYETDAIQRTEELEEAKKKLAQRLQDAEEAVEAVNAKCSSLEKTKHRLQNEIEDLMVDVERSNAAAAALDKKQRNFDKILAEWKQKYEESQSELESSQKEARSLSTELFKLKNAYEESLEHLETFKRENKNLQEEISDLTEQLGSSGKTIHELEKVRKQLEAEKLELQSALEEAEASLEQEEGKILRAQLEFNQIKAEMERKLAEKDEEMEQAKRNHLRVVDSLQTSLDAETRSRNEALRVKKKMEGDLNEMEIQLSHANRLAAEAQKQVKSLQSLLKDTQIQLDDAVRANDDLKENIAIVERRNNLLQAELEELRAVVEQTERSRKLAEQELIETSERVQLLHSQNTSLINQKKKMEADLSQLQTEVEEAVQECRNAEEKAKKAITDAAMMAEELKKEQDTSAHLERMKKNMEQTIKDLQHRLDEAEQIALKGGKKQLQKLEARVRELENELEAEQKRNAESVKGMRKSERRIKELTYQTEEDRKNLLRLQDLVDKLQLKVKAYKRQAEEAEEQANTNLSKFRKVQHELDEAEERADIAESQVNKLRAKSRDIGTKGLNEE
bovine cardiac myofibrils (full-length cardiac myosin ATPase in the native sarcomere), sequence (P85100 whole entry partner): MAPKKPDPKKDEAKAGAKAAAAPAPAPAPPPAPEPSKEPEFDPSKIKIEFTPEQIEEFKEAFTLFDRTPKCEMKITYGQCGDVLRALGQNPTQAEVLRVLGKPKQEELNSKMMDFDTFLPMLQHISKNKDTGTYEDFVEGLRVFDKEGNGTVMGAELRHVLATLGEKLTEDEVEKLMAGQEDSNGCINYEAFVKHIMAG
bovine cardiac myofibrils (full-length cardiac myosin ATPase in the native sarcomere), sequence (Q3SZE5 whole entry partner): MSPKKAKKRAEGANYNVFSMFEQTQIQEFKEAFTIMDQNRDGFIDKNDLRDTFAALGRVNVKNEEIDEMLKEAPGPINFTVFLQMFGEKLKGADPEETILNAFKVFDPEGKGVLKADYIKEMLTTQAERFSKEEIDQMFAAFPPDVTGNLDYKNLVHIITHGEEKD

SMILES	CDMF75 IC15 [µM]	IC50 [µM]
CCc1nc(-c2ccc3c(c2)CC[C@H]3NC(=O)c2nccn2C)no1 [Compound 579, (R)-N-(5-(5-ethyl-1,2,4-oxadiazol-3-yl)-2,3-dihydro-1H-inden-1-yl)-1-methyl-1H-imidazole-2-carboxamide]	1.2	5.1
CCc1nc(-c2ccc3c(c2)CC[C@H]3NC(=O)c2ccno2)no1 [Compound 581, (R)-N-(5-(5-ethyl-1,2,4-oxadiazol-3-yl)-2,3-dihydro-1H-inden-1-yl)isoxazole-5-carboxamide]	0.4	1.4
CCc1nc(-c2ccc3c(c2)CC[C@H]3NC(=O)c2ccno2)no1 [Compound 582, (R)-N-(5-(5-ethyl-1,2,4-oxadiazol-3-yl)-2,3-dihydro-1H-inden-1-yl)isoxazole-5-carboxamide]	0.4	1.3
CCc1nc(-c2ccc3c(c2)CC[C@H]3NC(=O)c2cnco2)no1 [Compound 583, (R)-N-(5-(5-ethyl-1,2,4-oxadiazol-3-yl)-2,3-dihydro-1H-inden-1-yl)oxazole-5-carboxamide]	0.4	1.3
CCc1nc(-c2ccc3c(c2)CC[C@H]3NC(=O)c2cnco2)no1 [Compound 584, (R)-N-(5-(5-ethyl-1,2,4-oxadiazol-3-yl)-2,3-dihydro-1H-inden-1-yl)oxazole-5-carboxamide]	0.3	1.2
CCc1nc(-c2ccc3c(c2)CC[C@H]3NC(=O)c2ccon2)no1 [Compound 586, (R)-N-(5-(5-ethyl-1,2,4-oxadiazol-3-yl)-2,3-dihydro-1H-inden-1-yl)isoxazole-3-carboxamide]	0.5	2.3
CCc1nc(-c2cc(Cl)c3c(c2)CC[C@H]3NC(=O)c2cnn(C)c2)no1 [Compound 588, (R)-N-(7-chloro-5-(5-ethyl-1,2,4-oxadiazol-3-yl)-2,3-dihydro-1H-inden-1-yl)-1-methyl-1H-pyrazole-4-carboxamide]	1.2	4.3
CCc1nc(-c2ccc3c(c2)CC[C@H]3NC(=O)c2ncco2)no1 [Compound 593, (R)-N-(5-(5-ethyl-1,2,4-oxadiazol-3-yl)-2,3-dihydro-1H-inden-1-yl)oxazole-2-carboxamide]	0.5	2.1
CCc1nc(-c2ccc3c(c2)CC[C@H]3NC(=O)c2cccc(C)n2)no1 [Compound 594, (R)-N-(5-(5-ethyl-1,2,4-oxadiazol-3-yl)-2,3-dihydro-1H-inden-1-yl)-6-methylpicolinamide]	1.4	5.8
CCc1nc(-c2ccc3c(c2)CC[C@H]3NC(=O)c2cnc(C)s2)no1 [Compound 595, (R)-N-(5-(5-ethyl-1,2,4-oxadiazol-3-yl)-2,3-dihydro-1H-inden-1-yl)-2-methylthiazole-5-carboxamide]	0.3	1
CCc1nc(-c2ccc3c(c2)CC[C@H]3NC(=O)c2cn(CCOC)nc2C)no1 [Compound 596, (R)-N-(5-(5-ethyl-1,2,4-oxadiazol-3-yl)-2,3-dihydro-1H-inden-1-yl)-1-(2-methoxyethyl)-3-methyl-1H-pyrazole-4-carboxamide]	0.8	2.5
CCc1nc(-c2ccc3c(c2)CC[C@H]3NC(=O)c2cn(CCO)nc2C)no1 [Compound 597, (R)-N-(5-(5-ethyl-1,2,4-oxadiazol-3-yl)-2,3-dihydro-1H-inden-1-yl)-1-(2-hydroxyethyl)-3-methyl-1H-pyrazole-4-carboxamide]	0.5	1.9
CCc1nc(-c2ccc3c(c2)CC[C@H]3NC(=O)c2cnn(CCCOC)c2C)no1 [Compound 598, (R)-N-(5-(5-ethyl-1,2,4-oxadiazol-3-yl)-2,3-dihydro-1H-inden-1-yl)-1-(3-methoxypropyl)-5-methyl-1H-pyrazole-4-carboxamide]	3.9	15.7
O=C(N[C@@H]1CCc2cc(-c3noc(C4CC4)n3)ccc21)c1cnn(CCCO)c1 [Compound 601, (R)-N-(5-(5-cyclopropyl-1,2,4-oxadiazol-3-yl)-2,3-dihydro-1H-inden-1-yl)-1-(3-hydroxypropyl)-1H-pyrazole-4-carboxamide]	1.6	7.3
CCc1nc(-c2ccc3c(c2)CC[C@H]3NC(=O)c2ccn(CCOC)n2)no1 [Compound 602, (R)-N-(5-(5-ethyl-1,2,4-oxadiazol-3-yl)-2,3-dihydro-1H-inden-1-yl)-1-(2-methoxyethyl)-1H-pyrazole-3-carboxamide]	4.1	16.9
CCc1nc(-c2ccc3c(c2)CC[C@H]3NC(=O)c2ccc(=O)[nH]c2)no1 [Compound 603, (R)-N-(5-(5-ethyl-1,2,4-oxadiazol-3-yl)-2,3-dihydro-1H-inden-1-yl)-6-oxo-1,6-dihydropyridine-3-carboxamide]	0.3	1
CCc1nc(-c2ccc3c(c2)CC[C@H]3NC(=O)c2ccc(=O)[nH]c2)no1 [Compound 604, (R)-N-(5-(5-ethyl-1,2,4-oxadiazol-3-yl)-2,3-dihydro-1H-inden-1-yl)-6-oxo-1,6-dihydropyridine-3-carboxamide]	0.3	0.9
CCc1nc(-c2ccc3c(c2)CC[C@H]3NC(=O)c2ccn(CCO)n2)no1 [Compound 608, (R)-N-(5-(5-ethyl-1,2,4-oxadiazol-3-yl)-2,3-dihydro-1H-inden-1-yl)-1-(2-hydroxyethyl)-1H-pyrazole-3-carboxamide]	1.2	4.6
CCc1nc(-c2cc(O)c3c(c2)CC[C@H]3NC(=O)c2cnn(C)c2)no1 [Compound 609, N-[(1R)-5-(5-ethyl-1,2,4-oxadiazol-3-yl)-7-hydroxy-2,3-dihydro-1H-inden-1-yl]-1-methyl-1H-pyrazole-4-carboxamide]	0.3	0.9
CCc1nc(-c2ccc3c(c2)CC[C@H]3NC(=O)c2ccnc(C(C)(C)O)c2)no1 [Compound 610, (R)-N-(5-(5-ethyl-1,2,4-oxadiazol-3-yl)-2,3-dihydro-1H-inden-1-yl)-2-(2-hydroxypropan-2-yl)isonicotinamide]	2.0	8.6
CCc1nc(-c2ccc3c(c2)CC[C@H]3NC(=O)c2cnn(CCCO)c2C)no1 [Compound 611, (R)-N-(5-(5-ethyl-1,2,4-oxadiazol-3-yl)-2,3-dihydro-1H-inden-1-yl)-1-(3-hydroxypropyl)-5-methyl-1H-pyrazole-4-carboxamide]	0.7	2.5

Further molecules by falling IC50, results first:

CDMF75 IC15 [µM]	IC50 [µM]	SMILES
4.6	22.6	CCc1nc(-c2ccc3c(c2)CC[C@H]3NC(=O)c2ccc(=O)n(CCOC)c2)no1 [Compound 606, (R)-N-(5-(5-ethyl-1,2,4-oxadiazol-3-yl)-2,3-dihydro-1H-inden-1-yl)-1-(2-methoxyethyl)-6-oxo-1,6-dihydropyridine-3-carboxamide]
3.1	17.6	CCc1nc(-c2ccc3c(c2)CC[C@H]3NC(=O)c2cc(C)n(C)n2)no1 [Compound 580, (R)-N-(5-(5-ethyl-1,2,4-oxadiazol-3-yl)-2,3-dihydro-1H-inden-1-yl)-1,5-dimethyl-1H-pyrazole-3-carboxamide]
3.5	16.5	COCCCn1cc(C(=O)N[C@@H]2CCc3cc(-c4noc(C5CC5)n4)ccc32)cn1 [Compound 600, (R)-N-(5-(5-cyclopropyl-1,2,4-oxadiazol-3-yl)-2,3-dihydro-1H-inden-1-yl)-1-(3-methoxypropyl)-1H-pyrazole-4-carboxamide]
2.9	15.4	CCc1nc(-c2ccc3c(c2)CC[C@H]3NC(=O)c2ccnn2CCO)no1 [Compound 607, (R)-N-(5-(5-ethyl-1,2,4-oxadiazol-3-yl)-2,3-dihydro-1H-inden-1-yl)-1-(2-hydroxyethyl)-1H-pyrazole-5-carboxamide]
2.5	12.9	CCc1nc(-c2ccc3c(c2)CC[C@H]3NC(=O)c2cocn2)no1 [Compound 587, (R)-N-(5-(5-ethyl-1,2,4-oxadiazol-3-yl)-2,3-dihydro-1H-inden-1-yl)oxazole-4-carboxamide]
2.7	10.9	CCc1nc(-c2ccc3c(c2)CC[C@H]3NC(=O)c2ccn(C)n2)no1 [Compound 592, (R)-N-(5-(5-ethyl-1,2,4-oxadiazol-3-yl)-2,3-dihydro-1H-inden-1-yl)-1-methyl-1H-pyrazole-3-carboxamide]
4.4	9.8	CCc1nc(-c2ccc3c(c2)CC[C@H]3NC(=O)Cc2ccccc2)no1 [Compound 591, (R)-N-(5-(5-ethyl-1,2,4-oxadiazol-3-yl)-2,3-dihydro-1H-inden-1-yl)-2-phenylacetamide]
1.4	6.8	CCc1nc(-c2ccc3c(c2)CC[C@H]3NC(=O)c2csc(C)n2)no1 [Compound 590, (R)-N-(5-(5-ethyl-1,2,4-oxadiazol-3-yl)-2,3-dihydro-1H-inden-1-yl)-2-methylthiazole-4-carboxamide]
0.8	3.4	CCc1nc(-c2ccc3c(c2)CC[C@H]3NC(=O)c2ccc(=O)n(CCO)c2)no1 [Compound 605, (R)-N-(5-(5-ethyl-1,2,4-oxadiazol-3-yl)-2,3-dihydro-1H-inden-1-yl)-1-(2-hydroxyethyl)-6-oxo-1,6-dihydropyridine-3-carboxamide]
0.5	2.5	CCc1nc(-c2ccc3c(c2)CC[C@H]3NC(=O)c2ccon2)no1 [Compound 585, (R)-N-(5-(5-ethyl-1,2,4-oxadiazol-3-yl)-2,3-dihydro-1H-inden-1-yl)isoxazole-3-carboxamide]
